Assay: Inhibition of Influenza A virus (A/Puerto Rico/8/34(H1N1)) PA endonuclease infected in MDCK cells assessed as reduction in virus titer treated with cells for 1 hr prior to viral infection for 1 hr followed by compound washout and subsequent compound addition measured after 48 hrs by hemagglutination test

## C[C@@H](N)C12CC3CC(CC(C3)C1)C2 [(alpha-methyl-1-adamantyl)methylamine]
  IC50: 11 µM

## c1cncc(N2CCN=C2c2ccc(C3=NCCN3c3cccnc3)cc2)c1
  IC50: 68 µM

## COc1ccc(N2CCN=C2c2ccc(C3=NCCN3)cc2)cc1
  IC50: 44 µM

## c1ccc(N2CCN=C2c2ccc(C3=NCCN3c3ccccc3)cc2)cc1
  IC50: 77 µM

## Fc1ccc(N2CCN=C2c2ccc(C3=NCCN3)cc2)cc1
  IC50: 65 µM

## c1ccc(N2CCN=C2c2ccc(C3=NCCN3c3ccccn3)cc2)nc1
  IC50: 35 µM

## c1cnc(N2CCN=C2c2ccc(C3=NCCN3c3cnccn3)cc2)cn1
  IC50: > 809 µM

## Clc1ccc(N2CCN=C2c2ccc(C3=NCCN3c3ccc(Cl)cc3)cc2)cc1
  IC50: 5 µM

## Fc1ccc(N2CCN=C2c2ccc(C3=NCCN3c3ccc(F)cc3)cc2)cc1
  IC50: 12 µM

## c1ccc(N2CCN=C2c2ccc(C3=NCCN3)cc2)cc1
  IC50: 30 µM

## FC(F)(F)c1ccc(N2CCN=C2c2ccc(C3=NCCN3c3ccc(C(F)(F)F)cn3)cc2)nc1
  IC50: 103 µM

## COc1ccc(N2CCN=C2c2ccc(C3=NCCN3c3ccc(OC)cc3)cc2)cc1
  IC50: 16 µM

Reference: BindingDB's records for doi:10.1016/j.ejmech.2018.10.063 (Saint Petersburg State University, 2019)
